In PubChem BioAssay AID1745844 (Carcinogenic Potency Database (CPDB), 2022):
Values joined by “and” are separate entries in the source; they are usually repeats but may differ in a detail not shown here. Equal entries are not always repeated. Active and inactive are the calls of the source. How the calls were made is not given here.

Test system: rodent lifetime carcinogenesis bioassay, tumor incidence TD50
Assay: carcinogenic potency in animals, long-term in vivo studies, CPDB compilation (AID 1745844)

SMILES: ClC=C(Cl)Cl
- TD50 (mouse, strain Swiss, males, inhaled, site: any site (literature study), lesion: several types, types named in the paper, dosed 78 weeks, study length 145 weeks): 8070 mg/kg/day
- TD50 (mouse, strain Swiss, males, inhaled, site: liver, lesion: hepatoma, dosed 78 weeks, study length 145 weeks): 3910 mg/kg/day
- TD50 (mouse, strain Swiss, males, inhaled, site: lung, lesion: one or several types, types not named, dosed 78 weeks, study length 145 weeks): 10100 mg/kg/day
- TD50 (rat, strain ACI, females, by gavage, site: any site (literature study), lesion: several types, types named in the paper, dosed 103 weeks, study length 104 weeks): 61700 mg/kg/day
- TD50 (rat, strain ACI, females, by gavage, site: kidney, lesion: adenocarcinoma, NOS + tubular-cell adenocarcinoma, dosed 103 weeks, study length 104 weeks): 7800 mg/kg/day
- TD50 (rat, strain ACI, females, by gavage, site: kidney, lesion: adenocarcinoma, NOS + tubular-cell adenoma + tubular-cell adenocarcinoma, dosed 103 weeks, study length 104 weeks): 3760 mg/kg/day
- TD50 (rat, strain ACI, males, by gavage, site: any site (literature study), lesion: several types, types named in the paper, dosed 103 weeks, study length 104 weeks): 820 mg/kg/day
- TD50 (rat, strain ACI, males, by gavage, site: kidney, lesion: tubular-cell adenocarcinoma, dosed 103 weeks, study length 104 weeks): 12000 mg/kg/day
- TD50 (rat, strain ACI, males, by gavage, site: liver, lesion: hepatocellular adenoma + hepatocellular carcinoma + neoplastic nodule, dosed 103 weeks, study length 104 weeks): 9400 mg/kg/day
- TD50 (rat, strain August, females, by gavage, site: kidney, lesion: tubular-cell adenoma + tubular-cell adenocarcinoma, dosed 103 weeks, study length 104 weeks): 2240 mg/kg/day
- TD50 (rat, strain August, males, by gavage, site: kidney, lesion: tubular-cell adenocarcinoma, dosed 103 weeks, study length 104 weeks): 10800 mg/kg/day
- TD50 (rat, strain August, males, by gavage, site: kidney, lesion: tubular-cell adenoma + tubular-cell adenocarcinoma, dosed 103 weeks, study length 104 weeks): 3810 mg/kg/day
- TD50 (rat, strain August, males, by gavage, site: liver, lesion: hepatocellular adenoma + hepatocellular carcinoma + neoplastic nodule, dosed 103 weeks, study length 104 weeks): 6440 mg/kg/day
- TD50 (rat, strain August, males, by gavage, site: subcutaneous tissue, lesion: sarcoma, NOS + sarcoma, NOS, dosed 103 weeks, study length 104 weeks): 3730 mg/kg/day
- TD50 (rat, strain Charles River CD (Sprague-Dawley), females, inhaled, site: kidney, lesion: tubular-cell adenocarcinoma, dosed 104 weeks, study length 107 weeks): 10700 mg/kg/day
- TD50 (rat, strain Charles River CD (Sprague-Dawley), females, inhaled, site: liver, lesion: several types, types named in the paper, dosed 104 weeks, study length 107 weeks): 12300 mg/kg/day
- TD50 (rat, strain Charles River CD (Sprague-Dawley), females, inhaled, site: mammary gland, lesion: fibroadenoma, dosed 104 weeks, study length 107 weeks): 982 mg/kg/day
- TD50 (rat, strain Fischer 344, females, by gavage, site: any site (literature study), lesion: several types, types named in the paper, dosed 103 weeks, study length 103 weeks): 5710 mg/kg/day (inactive)
- TD50 (rat, strain Fischer 344, females, by gavage, site: kidney, lesion: tubular-cell adenocarcinoma, dosed 103 weeks, study length 103 weeks): 23000 mg/kg/day
- TD50 (rat, strain Fischer 344, females, by gavage, site: liver, lesion: hepatocellular adenoma + hepatocellular carcinoma + neoplastic nodule, dosed 103 weeks, study length 103 weeks): 9980 mg/kg/day
- TD50 (rat, strain Fischer 344, males, by gavage, site: any site (literature study), lesion: several types, types named in the paper, dosed 103 weeks, study length 103 weeks): 2240 mg/kg/day
- TD50 (rat, strain Fischer 344, males, by gavage, site: kidney, lesion: tubular-cell adenocarcinoma, dosed 103 weeks, study length 103 weeks): 3920 mg/kg/day
- TD50 (rat, strain Fischer 344, males, by gavage, site: kidney, lesion: tubular-cell adenoma + tubular-cell adenocarcinoma, dosed 103 weeks, study length 103 weeks): 2780 mg/kg/day
- TD50 (rat, strain Fischer 344, males, by gavage, site: liver, lesion: hepatocellular adenoma + hepatocellular carcinoma + neoplastic nodule, dosed 103 weeks, study length 103 weeks): 12200 mg/kg/day
- TD50 (rat, strain Fischer 344, males, by gavage, site: peritoneum, lesion: mesothelioma, NOS + mesothelioma, malignant, dosed 103 weeks, study length 103 weeks): 1490 mg/kg/day
- TD50 (rat, strain Fischer 344, males, by gavage, site: peritoneum, lesion: mesothelioma, malignant, dosed 103 weeks, study length 103 weeks): 1490 mg/kg/day
- TD50 (rat, strain Han:WIST, females, inhaled, site: any site (literature study), lesion: benign tumor, dosed 78 weeks, study length 156 weeks): 2120 mg/kg/day (inactive)
- carcinogen call (rat, strain Han:WIST, females, inhaled, site: any site (literature study), lesion: malignant tumor, dosed 78 weeks, study length 156 weeks): negative (inactive)
- TD50 (rat, strain Han:WIST, females, inhaled, site: kidney, lesion: tubular-cell adenoma, dosed 78 weeks, study length 156 weeks): 5500 mg/kg/day (inactive)
- carcinogen call (rat, strain Han:WIST, females, inhaled, site: liver, lesion: hepatocellular adenoma, dosed 78 weeks, study length 156 weeks): negative (inactive)
- carcinogen call (rat, strain Han:WIST, males, inhaled, site: any site (literature study), lesion: benign tumor, dosed 78 weeks, study length 156 weeks): negative (inactive)
- TD50 (rat, strain Han:WIST, males, inhaled, site: any site (literature study), lesion: malignant tumor, dosed 78 weeks, study length 156 weeks): 351 mg/kg/day (inactive)
- TD50 (rat, strain Han:WIST, males, inhaled, site: kidney, lesion: tubular-cell adenocarcinoma, dosed 78 weeks, study length 156 weeks): 3850 mg/kg/day (inactive)
- TD50 (rat, strain Han:WIST, males, inhaled, site: kidney, lesion: tubular-cell adenoma, dosed 78 weeks, study length 156 weeks): 10700 mg/kg/day (inactive)
- carcinogen call (rat, strain Han:WIST, males, inhaled, site: liver, lesion: hepatocellular adenoma, dosed 78 weeks, study length 156 weeks): negative (inactive)
- TD50 (rat, strain Marshall, females, by gavage, site: any site (literature study), lesion: several types, types named in the paper, dosed 103 weeks, study length 104 weeks): 709 mg/kg/day
- TD50 (rat, strain Marshall, females, by gavage, site: kidney, lesion: tubular-cell adenocarcinoma, dosed 103 weeks, study length 104 weeks): 4110 mg/kg/day
- TD50 (rat, strain Marshall, females, by gavage, site: kidney, lesion: tubular-cell adenoma + tubular-cell adenocarcinoma, dosed 103 weeks, study length 104 weeks): 4370 mg/kg/day
- TD50 (rat, strain Marshall, males, by gavage, site: any site (literature study), lesion: several types, types named in the paper, dosed 103 weeks, study length 104 weeks): 199 mg/kg/day
- TD50 (rat, strain Marshall, males, by gavage, site: kidney, lesion: tubular-cell adenocarcinoma, dosed 103 weeks, study length 104 weeks): 8000 mg/kg/day
- TD50 (rat, strain Marshall, males, by gavage, site: kidney, lesion: tubular-cell adenoma + tubular-cell adenocarcinoma, dosed 103 weeks, study length 104 weeks): 5710 mg/kg/day
- TD50 (rat, strain Marshall, males, by gavage, site: testis, lesion: interstitial-cell tumor + interstitial-cell tumor, malignant, dosed 103 weeks, study length 104 weeks): 153 mg/kg/day
- TD50 (rat, strain Marshall, males, by gavage, site: testis, lesion: interstitial-cell tumor, malignant, dosed 103 weeks, study length 104 weeks): 6540 mg/kg/day
- TD50 (rat, strain Osborne-Mendel, females, by gavage, site: adrenal gland, lesion: cortical adenoma, dosed 103 weeks, study length 104 weeks): 556 mg/kg/day
- TD50 (rat, strain Osborne-Mendel, females, by gavage, site: any site (literature study), lesion: several types, types named in the paper, dosed 78 weeks, study length 110 weeks): 5620 mg/kg/day (inactive)
- TD50 (rat, strain Osborne-Mendel, females, by gavage, site: any site (literature study), lesion: several types, types named in the paper, dosed 103 weeks, study length 104 weeks): 372 mg/kg/day
- TD50 (rat, strain Osborne-Mendel, females, by gavage, site: kidney, lesion: tubular-cell adenoma, dosed 103 weeks, study length 104 weeks): 10700 mg/kg/day
- TD50 (rat, strain Osborne-Mendel, females, by gavage, site: liver, lesion: hepatocellular adenoma + hepatocellular carcinoma + neoplastic nodule, dosed 103 weeks, study length 104 weeks): 3500 mg/kg/day
- TD50 (rat, strain Osborne-Mendel, males, by gavage, site: any site (literature study), lesion: several types, types named in the paper, dosed 78 weeks, study length 110 weeks): 16000 mg/kg/day
- TD50 (rat, strain Osborne-Mendel, males, by gavage, site: any site (literature study), lesion: several types, types named in the paper, dosed 103 weeks, study length 104 weeks): 1490 mg/kg/day
- TD50 (rat, strain Osborne-Mendel, males, by gavage, site: kidney, lesion: tubular-cell adenocarcinoma, dosed 78 weeks, study length 110 weeks): 7220 mg/kg/day
- TD50 (rat, strain Osborne-Mendel, males, by gavage, site: kidney, lesion: tubular-cell adenoma + tubular-cell adenocarcinoma, dosed 103 weeks, study length 104 weeks): 628 mg/kg/day
- TD50 (rat, strain Osborne-Mendel, males, by gavage, site: kidney, lesion: tubular-cell adenoma, dosed 103 weeks, study length 104 weeks): 628 mg/kg/day
- TD50 (rat, strain Osborne-Mendel, males, by gavage, site: liver, lesion: hepatocellular adenoma + hepatocellular carcinoma + neoplastic nodule, dosed 103 weeks, study length 104 weeks): 8950 mg/kg/day
- TD50 (rat, strain Sprague-Dawley, females, inhaled, site: any site (literature study), lesion: several types, types named in the paper, dosed 104 weeks, study length 159 weeks): 3890 mg/kg/day
- TD50 (rat, strain Sprague-Dawley, females, inhaled, site: kidney, lesion: several types, types named in the paper, dosed 104 weeks, study length 159 weeks): 41300 mg/kg/day
- TD50 (rat, strain Sprague-Dawley, females, inhaled, site: kidney, lesion: tubular-cell adenocarcinoma, dosed 104 weeks, study length 159 weeks): 43200 mg/kg/day
- TD50 (rat, strain Sprague-Dawley, females, inhaled, site: liver, lesion: angiosarcoma, dosed 104 weeks, study length 159 weeks): 8010 mg/kg/day
- TD50 (rat, strain Sprague-Dawley, females, inhaled, site: liver, lesion: neoplastic nodule, dosed 104 weeks, study length 159 weeks): 9680 mg/kg/day
- TD50 (rat, strain Sprague-Dawley, males, by gavage, site: all sites, lesion: leukemia, dosed 52 weeks, study length 140 weeks): 428 mg/kg/day
- TD50 (rat, strain Sprague-Dawley, males, by gavage, site: any site (literature study), lesion: malignant tumor, dosed 52 weeks, study length 140 weeks): 818 mg/kg/day
- TD50 (rat, strain Sprague-Dawley, males, inhaled, site: all sites, lesion: leukemia, dosed 104 weeks, study length 159 weeks): 5930 mg/kg/day and 2810 mg/kg/day
- TD50 (rat, strain Sprague-Dawley, males, inhaled, site: kidney, lesion: tubular-cell adenocarcinoma, dosed 104 weeks, study length 159 weeks): 9490 mg/kg/day and 12400 mg/kg/day
- TD50 (rat, strain Sprague-Dawley, males, inhaled, site: kidney, lesion: tubular-cell adenoma, dosed 104 weeks, study length 159 weeks): 29200 mg/kg/day
- TD50 (rat, strain Sprague-Dawley, males, inhaled, site: liver, lesion: neoplastic nodule, dosed 104 weeks, study length 159 weeks): 30700 mg/kg/day
- TD50 (rat, strain Sprague-Dawley, males, inhaled, site: mammary gland, lesion: one or several types, types not named, dosed 104 weeks, study length 159 weeks): 120 mg/kg/day
- TD50 (rat, strain Sprague-Dawley, males, inhaled, site: testis, lesion: Leydig-cell tumor, dosed 104 weeks, study length 159 weeks): 557 mg/kg/day and 835 mg/kg/day
